Test results reported in ChEMBL document CHEMBL1201862, “PubChem BioAssay data set” (2004).
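These data come from cells grown in 96-well plates and exposed to compound for 48 hours at five concentrations. GI50 marks 50% less growth.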 Calls of active or inactive are those of the source. Cut-off read from the data, not from the text of the source: active = GI50 up to about 1.1 µM and inactive = higher.

Experiments:
Assay in all cases: inhibition of tumour cell growth, NCI panel, 48 h
[1] = tested on: HOP-62
[2] = tested on: CCRF-CEM
[3] = tested on: SN12C
[4] = tested on: OVCAR-4
[5] = tested on: ACHN
[6] = tested on: HCC 2998
[7] = tested on: CAKI-1
[8] = tested on: NCI-H522
[9] = tested on: A498
[10] = tested on: MDA-N
[11] = tested on: SF-539
[12] = tested on: COLO 205
[13] = tested on: MOLT-4
[14] = tested on: MDA-MB-435
[15] = tested on: SNB-75
[16] = tested on: K562
[17] = tested on: NCI-H226
[18] = tested on: PC-3
[19] = tested on: MDA-MB-231

Measured: GI50

Cc1n[nH]c(=O)n1/N=C/c1ccc(F)cc1
inactive: [1] > 100 µM | [2] > 100 µM | [3] > 100 µM | [4] > 100 µM | [5] > 100 µM | [6] > 100 µM | [7] > 100 µM | [8] > 100 µM | [9] 90.8 µM | [10] > 100 µM | [11] > 100 µM | [12] > 100 µM | [13] > 100 µM | [14] > 100 µM | [15] 65.2 µM | [16] > 100 µM

Cc1nc2c(n1CC(C)C)C(=O)c1ccccc1C2=O
inactive: [1] 42.1 µM | [2] 38.2 µM | [3] 37.1 µM | [4] 43.4 µM | [5] 32.1 µM | [6] 71.4 µM | [8] 26.5 µM | [11] 24.8 µM | [12] 36 µM | [13] 38.6 µM | [15] 42.8 µM | [16] 29.9 µM | [17] > 100 µM

Oc1c2cccc1Cc1cccc3c1OCCOCCOCCOCCOc1c(cccc1Cc1cccc(c1O)C3)C2
inactive: [1] > 100 µM | [2] > 100 µM | [3] > 100 µM | [4] > 100 µM | [5] > 100 µM | [6] > 100 µM | [7] > 100 µM | [8] 18.5 µM | [9] > 100 µM | [18] 17.1 µM | [19] 89.7 µM | [11] 94.6 µM | [12] > 100 µM | [13] > 100 µM | [14] > 100 µM | [15] 22 µM | [16] > 100 µM | [17] 22.5 µM

COC(=O)CSc1cc(Cl)c(C)cc1S(=O)(=O)Nc1n[nH]c(N)n1
inactive: [1] > 10 µM | [2] > 10 µM | [3] > 10 µM | [4] > 10 µM | [5] > 10 µM | [6] > 10 µM | [7] > 10 µM | [8] > 10 µM | [9] > 10 µM | [10] > 10 µM | [18] > 10 µM | [11] > 10 µM | [12] > 10 µM | [13] > 10 µM | [15] > 10 µM | [16] > 10 µM | [17] > 10 µM

O=C(/C=C1\Nc2ccccc2N\C1=C\C(=O)c1ccc(Cl)cc1)c1ccccc1
inactive: [1] 26.1 µM | [2] 10.4 µM | [3] 47.2 µM | [4] 31.3 µM | [5] 31.6 µM | [6] 74.8 µM | [7] 27.8 µM | [8] > 100 µM | [9] 73.6 µM | [18] > 100 µM | [19] > 100 µM | [11] 35.1 µM | [12] > 100 µM | [13] 7.87 µM | [14] > 100 µM | [15] 21.3 µM | [16] 37.5 µM | [17] > 100 µM

O=[N+]([O-])c1ccc(/C=C(/c2ccc([N+](=O)[O-])o2)S(=O)(=O)c2ccccc2)cc1
inactive: [1] 50.6 µM | [4] 57 µM | [5] > 100 µM | [7] > 100 µM | [8] 39.4 µM | [18] > 100 µM | [19] 14.3 µM | [11] 33.7 µM | [12] 47.6 µM | [13] 16.8 µM | [14] 60.8 µM | [15] > 100 µM | [16] 36.2 µM | [17] 13.4 µM

COC(=O)C(CCCC1(c2ccccc2)OCCO1)C(C)=O (centres undefined)
inactive: [1] > 100 µM | [2] > 100 µM | [3] > 100 µM | [4] > 100 µM | [5] 38.1 µM | [6] > 100 µM | [8] 64 µM | [9] > 100 µM | [11] > 100 µM | [12] > 100 µM | [13] > 100 µM | [15] 30.2 µM | [16] 91.8 µM | [17] 40.9 µM

COc1ccc(Oc2nc3ccc(C(F)(F)F)cc3nc2-c2ccccc2)cc1
inactive: [1] > 100 µM | [2] 98.9 µM | [3] > 100 µM | [4] > 100 µM | [5] > 100 µM | [6] 25.3 µM | [7] > 100 µM | [8] > 100 µM | [9] > 100 µM | [18] > 100 µM | [19] > 100 µM | [12] > 100 µM | [13] 62.4 µM | [14] > 100 µM | [16] 87.9 µM | [17] > 100 µM

COC1OC(C)C(OC(=O)C(C)(C)C)C(C)(O)C1O (centres undefined)
inactive: [1] > 100 µM | [2] > 100 µM | [3] > 100 µM | [4] > 100 µM | [6] > 100 µM | [7] > 100 µM | [8] > 100 µM | [9] > 100 µM | [11] > 100 µM | [12] > 100 µM | [13] > 100 µM | [16] > 100 µM | [17] > 10 µM
